Target: T1, Regulator of G-protein signaling 16 (Homo sapiens, UniProt O15492)
T1 sequence (O15492 whole entry): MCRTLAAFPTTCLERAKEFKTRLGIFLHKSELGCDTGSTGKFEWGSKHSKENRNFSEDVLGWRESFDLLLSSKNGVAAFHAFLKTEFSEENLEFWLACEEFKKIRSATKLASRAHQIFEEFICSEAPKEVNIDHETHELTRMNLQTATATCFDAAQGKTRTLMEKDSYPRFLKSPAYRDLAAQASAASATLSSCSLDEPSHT
Test: RGS16-Galphao binding modulators, SAR follow-up, biochemical, multiplexed bead flow cytometry, SAR compounds (AID 2298)
Conditions: not given

Row | Structure (SMILES) | EC50 [nM]
1 | Cc1[nH]n(-c2ccccc2)c(=S)c1/C=N/c1cccc([N+](=O)[O-])c1 [(4E)-5-methyl-4-[(3-nitroanilino)methylene]-2-phenyl-2-pyrazoline-3-thione] | 46
2 | CCN(CC)S(=O)(=O)c1cccc(-c2n[nH]c(=S)n2N=Cc2ccc(C(=O)OC)cc2)c1 [4-[(E)-[3-[3-(diethylsulfamoyl)phenyl]-5-thioxo-1H-1,2,4-triazol-4-yl]iminomethyl]benzoic acid methyl ester] | 940
3 | Nc1c(C(=O)NCC2CCCO2)sc2nc3c(c(-c4ccco4)c12)CC/C3=C/c1ccco1 (configuration not stated) [UNM-0000305796] | > 30000
4 | Cc1cc(C)c2c(=O)n(CC(=O)N3CCN(c4ccccc4)CC3)ccc2n1 [2,4-dimethyl-6-[2-oxidanylidene-2-(4-phenylpiperazin-1-yl)ethyl]-1,6-naphthyridin-5-one] | 18
5 | CC1(C)OC(=O)C(=Cc2ccc(-c3ccc(S(N)(=O)=O)cc3)o2)C(=O)O1 [SMR000273939] | 3510
6 | NS(=O)(=O)c1ccc(N=NCc2ccc(O)c(O)c2O)c([N+](=O)[O-])c1 [4-[[(E)-(2,3-dihydroxy-4-oxo-1-cyclohexa-2,5-dienylidene)methyl]hydrazo]-3-nitrobenzenesulfonamide] | 29
7 | CN=c1scc(C)n1N=Cc1ccc(O)c(O)c1O [(4E)-2,3-dihydroxy-4-[[(4-methyl-2-methylimino-1,3-thiazol-3-yl)amino]methylidene]cyclohexa-2,5-dien-1-one] | 511
8 | Cc1cccc(N2CCN(C(=O)COc3nsc4nc(C)cc(C)c34)CC2C)c1 (configuration not stated) | 1430
9 | O=c1c2ccccc2sn1-c1ccccc1 [2-phenyl-1,2-benzothiazol-3-one] | > 30000
10 | Cc1cccc(N2CCN(C(=O)COc3noc4nc(C)cc(C)c34)CC2C)c1 (configuration not stated) [2-[(4,6-dimethyl-[1,2]oxazolo[5,4-b]pyridin-3-yl)oxy]-1-[3-methyl-4-(3-methylphenyl)piperazin-1-yl]ethanone] | > 30000
11 | O=c1c2ccccc2sn1-c1ccc(S(=O)(=O)N2CCCC2)cc1 [2-(4-pyrrolidin-1-ylsulfonylphenyl)-1,2-benzothiazol-3-one] | 27
12 | CC(=O)OCCCNc1cc(Sc2nc3ccccc3s2)c2nonc2c1[N+](=O)[O-] [MLS000521052] | 272
13 | COc1ccc(C2=CC(=O)C=CC2=O)cc1 [MLS001029846] | 151
14 | Cc1cccc(N2CCN(C(=O)CN3CCc4nc(C)cc(C)c4C3=O)CC2C)c1 (configuration not stated) [KUC103675N] | > 30000
15 | CCN(CC)S(=O)(=O)c1cccc(C(=O)NN=Cc2ccc(O)c(O)c2O)c1 | 590
16 | Cc1cccc(N2CCN(C(=O)Cn3sc4nc(C)cc(C)c4c3=O)CC2C)c1 (configuration not stated) [2-[2-keto-2-[3-methyl-4-(m-tolyl)piperazino]ethyl]-4,6-dimethyl-isothiazolo[5,4-b]pyridin-3-one] | 110
17 | Cc1[nH]n(-c2ccccc2)c(=S)c1C=NCCCN=Cc1c(C)[nH]n(-c2ccccc2)c1=S | 405
18 | CCC(=O)NC(c1ccc(C)cc1)c1cc([N+](=O)[O-])c2cccnc2c1O (configuration not stated) [MLS000553854] | 5220
19 | O=C1C(Cl)=C(N2CCCCC2)C(=O)C(Cl)=C1c1cnc(N2CCCCC2)s1 [MLS000550549] | 121
20 | O=C(COc1ccccc1C(=O)NN=Cc1ccc(O)c(O)c1)NN=Cc1ccc(O)c(O)c1 [N''-[(Z)-(3-hydroxy-4-oxo-1-cyclohexa-2,5-dienylidene)methyl]-2-[2-[[(Z)-(3-hydroxy-4-oxo-1-cyclohexa-2,5-dienylidene)methyl]hydrazo]-2-oxoethoxy]benzohydrazide] | 116
21 | CN1CCN(C2=C(Cl)C(=O)C(c3cnc(N4CCCCC4)s3)=C(Cl)C2=O)CC1 | 27
22 | Cc1cc(C)c2c(n1)CCN(CC(=O)N1CCN(c3ccccc3)CC1)C2=O [2,4-dimethyl-6-[2-oxidanylidene-2-(4-phenylpiperazin-1-yl)ethyl]-7,8-dihydro-1,6-naphthyridin-5-one] | > 30000
23 | Cc1cc(Cl)ccc1/N=c1/ssnc1Cl [MLS000539990] | 53
24 | CCN=c1scc(C)n1N=Cc1ccc(O)c(O)c1O | 1050
25 | O=C(Cc1csc(N2CCOCC2)n1)NN=Cc1ccc(O)c(O)c1O [SMR000369439] | 822
26 | Cc1cccc(N2CCN(C(=O)Cn3ccc4nc(C)cc(C)c4c3=O)CC2C)c1 (configuration not stated) [2,4-dimethyl-6-[2-[3-methyl-4-(3-methylphenyl)piperazin-1-yl]-2-oxidanylidene-ethyl]-1,6-naphthyridin-5-one] | > 30000

Same assay, conditions: inactive by the depositor's call

Row | Structure (SMILES) | EC50 [nM]
27 | CCOc1ccccc1-c1c2cc(O)c(=O)cc-2oc2cc(O)c(O)cc12 [MLS000578271] | 3680
